{
  "source": "patent US8293802B2",
  "about": "“Gentle-acting skin-disinfectants and hydroalcoholic gel formulations” (The Trustees of Columbia University, priority 2001, dated 2012)",
  "key": {"S. aureus": {"tested_on": "S. aureus", "assay": "Rapid antimicrobial activity: test gel/base mixed with culture and bovine adult serum, 15 seconds, colony count", "format": "cell-based, Staphylococcus aureus", "conditions": "for Growth (CFU/ml) / S. aureus (cfu/tube): control 1 × 10^8; for Growth (cfu/tube): Table 7, control (without gel base) 2.5-4.2 × 10^8; for antimicrobial activity against S. aureus (in words): Tables 1 and 2"}, "[1]": {"conditions": "at 22° C.; cited from earlier work"}, "[2]": {"conditions": "Table 5, alcohol gel base, 15 seconds"}, "[3]": {"conditions": "Table 3, alcohol gel base, 15 seconds"}, "[4]": {"conditions": "Table 10, aqueous base of Example 8, 15 seconds, aqueous base control 5.0 × 10^8"}, "[5]": {"conditions": "Table 1, alcohol gel base of Example 1, 15 seconds, bovine adult serum"}, "[6]": {"conditions": "Table 1, alcohol gel base, 15 seconds"}, "[7]": {"conditions": "Table 2, alcohol gel base, 15 seconds"}},
  "note": "Like-named read-outs stand apart in the source and are kept apart here.",
  "data": [
    {"compound": "Oc1cc(Cl)ccc1Oc1ccc(Cl)cc1Cl", "note": "[0.3% TC, triclosan]", "values": [
      {"measurement": "fold reduction relative to control", "setting": "S. aureus; [2]", "result": 0, "unit": "fold"},
      {"measurement": "Growth (CFU/ml)", "setting": "S. aureus; [2]", "result": "1.0 × 10^8 CFU/ml"}
    ]},
    {"compound": "N=C(NCCCCCCNC(=N)NC(=N)Nc1ccc(Cl)cc1)NC(=N)Nc1ccc(Cl)cc1.O=C(O)[C@H](O)[C@@H](O)[C@H](O)[C@H](O)CO.O=C(O)[C@H](O)[C@@H](O)[C@H](O)[C@H](O)CO", "note": "[0.05% CHG, chlorhexidine digluconate]", "values": [
      {"measurement": "Log 10 cfu reduction relative to control", "setting": "S. aureus; [3]", "result": 1.0, "unit": "log 10"},
      {"measurement": "fold reduction relative to control", "setting": "S. aureus; [3]", "result": 9, "unit": "fold"},
      {"measurement": "S. aureus (cfu/tube)", "setting": "S. aureus; [3]", "result": "1.1 × 10^7 cfu/tube"},
      {"measurement": "fold reduction relative to control", "setting": "S. aureus; [2]", "result": 9, "unit": "fold"},
      {"measurement": "Growth (CFU/ml)", "setting": "S. aureus; [2]", "result": "1.1 × 10^7 CFU/ml"},
      {"measurement": "Growth (cfu/tube)", "setting": "S. aureus; alcohol gel base, 15 seconds", "result": "1.1 × 10^7 cfu/tube"},
      {"measurement": "Staphylococcus aureus (CFU/tube)", "setting": "S. aureus; [4]", "result": "2.5 × 10^8 CFU/tube"}
    ]},
    {"compound": "N=C(NCCCCCCNC(=N)NC(=N)Nc1ccc(Cl)cc1)NC(=N)Nc1ccc(Cl)cc1.O=C(O)[C@H](O)[C@@H](O)[C@H](O)[C@H](O)CO.O=C(O)[C@H](O)[C@@H](O)[C@H](O)[C@H](O)CO", "note": "[0.5% CHG, chlorhexidine digluconate]", "values": [
      {"measurement": "Log 10 cfu reduction relative to control", "setting": "S. aureus; [3]", "result": 1.4, "unit": "log 10"},
      {"measurement": "fold reduction relative to control", "setting": "S. aureus; [3]", "result": 23.8, "unit": "fold"},
      {"measurement": "S. aureus (cfu/tube)", "setting": "S. aureus; [3]", "result": "4.2 × 10^6 cfu/tube"}
    ]},
    {"compound": "CCCCC(CC)COCC(O)CO", "note": "(stereo not drawn) [0.5% Sensiva, glycerol 1-(2-ethylhexyl)ether]", "values": [
      {"measurement": "S. aureus (cfu/tube)", "setting": "S. aureus; [5]", "result": "1 × 10^7 cfu/tube"},
      {"measurement": "fold-reduction relative to control", "setting": "S. aureus; [6]", "result": 2.5, "unit": "fold"},
      {"measurement": "Growth (cfu/tube)", "setting": "S. aureus; alcohol gel base, 15 seconds", "result": "4.0 × 10^7 cfu/tube"}
    ]},
    {"compound": "CC(C)(C)CC(C)(C)c1ccc(OCCOCC[N+](C)(C)Cc2ccccc2)cc1", "note": "[0.12% BZT, benzethonium chloride]", "values": [
      {"measurement": "fold reduction relative to control", "setting": "S. aureus; [2]", "result": 10, "unit": "fold"},
      {"measurement": "Growth (CFU/ml)", "setting": "S. aureus; [2]", "result": "1.0 × 10^7 CFU/ml"}
    ]},
    {"compound": "N=C(NCCCCCCNC(=N)NC(=N)Nc1ccc(Cl)cc1)NC(=N)Nc1ccc(Cl)cc1.O=C(O)[C@H](O)[C@@H](O)[C@H](O)[C@H](O)CO.O=C(O)[C@H](O)[C@@H](O)[C@H](O)[C@H](O)CO", "note": "[0.25% CHG, chlorhexidine digluconate]", "values": [
      {"measurement": "Log 10 cfu reduction relative to control", "setting": "S. aureus; [3]", "result": 1.1, "unit": "log 10"},
      {"measurement": "fold reduction relative to control", "setting": "S. aureus; [3]", "result": 12.5, "unit": "fold"},
      {"measurement": "S. aureus (cfu/tube)", "setting": "S. aureus; [3]", "result": "8 × 10^6 cfu/tube"}
    ]},
    {"compound": "Clc1ccc(COC(Cn2ccnc2)c2ccc(Cl)cc2Cl)c(Cl)c1", "note": "(stereo not drawn) [1.0% Miconazole, miconazole]", "values": [
      {"measurement": "fold reduction relative to control", "setting": "S. aureus; [2]", "result": 0, "unit": "fold"},
      {"measurement": "Growth (CFU/ml)", "setting": "S. aureus; [2]", "result": "1.0 × 10^8 CFU/ml"}
    ]},
    {"compound": "CCCCC(CC)COCC(O)CO", "note": "(stereo not drawn) [1.0% Sensiva, glycerol 1-(2-ethylhexyl)ether]", "values": [
      {"measurement": "S. aureus (cfu/tube)", "setting": "S. aureus; [5]", "result": "4 × 10^7 cfu/tube"},
      {"measurement": "fold-reduction relative to control", "setting": "S. aureus; [6]", "result": 9, "unit": "fold"},
      {"measurement": "Log 10 cfu reduction relative to control", "setting": "S. aureus; [7]", "result": 1, "unit": "log 10"},
      {"measurement": "fold reduction relative to control", "setting": "S. aureus; [7]", "result": 10, "unit": "fold"},
      {"measurement": "S. aureus (cfu/tube)", "setting": "S. aureus; [7]", "result": "4 × 10^7 cfu/tube"},
      {"measurement": "Growth (cfu/tube)", "setting": "S. aureus; alcohol gel base, 15 seconds", "result": "1.0 × 10^7 cfu/tube"},
      {"measurement": "Staphylococcus aureus (CFU/tube)", "setting": "S. aureus; [4]", "result": "5.0 × 10^8 CFU/tube"}
    ]},
    {"compound": "CCCCC(CC)COCC(O)CO", "note": "(stereo not drawn) [2.0% Sensiva, glycerol 1-(2-ethylhexyl)ether]", "values": [
      {"measurement": "S. aureus (cfu/tube)", "setting": "S. aureus; [5]", "result": "3 × 10^6 cfu/tube"},
      {"measurement": "fold-reduction relative to control", "setting": "S. aureus; [6]", "result": 33, "unit": "fold"},
      {"measurement": "Log 10 cfu reduction relative to control", "setting": "S. aureus; [7]", "result": 1.5, "unit": "log 10"},
      {"measurement": "fold reduction relative to control", "setting": "S. aureus; [7]", "result": 33, "unit": "fold"},
      {"measurement": "S. aureus (cfu/tube)", "setting": "S. aureus; [7]", "result": "3 × 10^6 cfu/tube"},
      {"measurement": "fold reduction relative to control", "setting": "S. aureus; [2]", "result": 33, "unit": "fold"},
      {"measurement": "Growth (CFU/ml)", "setting": "S. aureus; [2]", "result": "3 × 10^6 CFU/ml"},
      {"measurement": "Fold Reduction Compared to Control", "setting": "S. aureus; Table 6, alcohol gel base, 15 seconds", "result": 33, "unit": "fold"},
      {"measurement": "Growth (CFU/ML)", "setting": "S. aureus; Table 6, alcohol gel base, 15 seconds, control 1.0 × 10^8", "result": "3.0 × 10^6 CFU/ML"}
    ]},
    {"compound": "CCCCC(CC)COCC(O)CO", "note": "(stereo not drawn) [3.0% Sensiva, glycerol 1-(2-ethylhexyl)ether]", "values": [
      {"measurement": "S. aureus (cfu/tube)", "setting": "S. aureus; [5]", "result": "1 × 10^6 cfu/tube"},
      {"measurement": "fold-reduction relative to control", "setting": "S. aureus; [6]", "result": 100, "unit": "fold"}
    ]},
    {"compound": "CCCCC(CC)COCC(O)CO", "note": "(stereo not drawn) [5.0% Sensiva, glycerol 1-(2-ethylhexyl)ether]", "values": [
      {"measurement": "S. aureus (cfu/tube)", "setting": "S. aureus; [5]", "result": "1 × 10^6 cfu/tube"},
      {"measurement": "fold-reduction relative to control", "setting": "S. aureus; [6]", "result": 100, "unit": "fold"}
    ]},
    {"compound": "CCCCC(CC)COCC(O)CO", "note": "(stereo not drawn) [Sensiva SC 50, glycerol 1-(2-ethylhexyl)ether]", "values": [
      {"measurement": "water solubility", "setting": "[1]", "result": "approximately 1.8 g/l"}
    ]},
    {"compound": "benzalkonium chloride [0.5% BZK]", "values": [
      {"measurement": "Log 10 cfu reduction relative to control", "setting": "S. aureus; [7]", "result": 1.4, "unit": "log 10"},
      {"measurement": "fold reduction relative to control", "setting": "S. aureus; [7]", "result": 27, "unit": "fold"},
      {"measurement": "S. aureus (cfu/tube)", "setting": "S. aureus; [7]", "result": "3.7 × 10^6 cfu/tube"}
    ]},
    {"compound": "benzalkonium chloride [0.12% BZK]", "values": [
      {"measurement": "Log 10 cfu reduction relative to control", "setting": "S. aureus; [7]", "result": 0.8, "unit": "log 10"},
      {"measurement": "fold reduction relative to control", "setting": "S. aureus; [7]", "result": 6.25, "unit": "fold"},
      {"measurement": "S. aureus (cfu/tube)", "setting": "S. aureus; [7]", "result": "1.6 × 10^7 cfu/tube"},
      {"measurement": "fold reduction relative to control", "setting": "S. aureus; [2]", "result": 6.25, "unit": "fold"},
      {"measurement": "Growth (CFU/ml)", "setting": "S. aureus; [2]", "result": "1.6 × 10^7 CFU/ml"},
      {"measurement": "Growth (cfu/tube)", "setting": "S. aureus; alcohol gel base, 15 seconds", "result": "1.6 × 10^7 cfu/tube"},
      {"measurement": "Staphylococcus aureus (CFU/tube)", "setting": "S. aureus; [4]", "result": "2.0 × 10^8 CFU/tube"},
      {"measurement": "antimicrobial activity against S. aureus (in words)", "setting": "S. aureus; alcohol gel base", "result": "minimal or no antimicrobial activity"}
    ]},
    {"compound": "benzalkonium chloride [0.019% BZK]", "values": [
      {"measurement": "Growth (cfu/tube)", "setting": "S. aureus; alcohol gel base, 15 seconds", "result": "8.0 × 10^7 cfu/tube"}
    ]},
    {"compound": "benzalkonium chloride [0.19% BZK]", "values": [
      {"measurement": "Log 10 cfu reduction relative to control", "setting": "S. aureus; [7]", "result": 0.7, "unit": "log 10"},
      {"measurement": "fold reduction relative to control", "setting": "S. aureus; [7]", "result": 5, "unit": "fold"},
      {"measurement": "S. aureus (cfu/tube)", "setting": "S. aureus; [7]", "result": "2 × 10^7 cfu/tube"},
      {"measurement": "antimicrobial activity against S. aureus (in words)", "setting": "S. aureus; alcohol gel base", "result": "minimal or no antimicrobial activity"}
    ]},
    {"compound": "neomycin [0.3% Neomycin]", "values": [
      {"measurement": "fold reduction relative to control", "setting": "S. aureus; [2]", "result": 4.3, "unit": "fold"},
      {"measurement": "Growth (CFU/ml)", "setting": "S. aureus; [2]", "result": "2.3 × 10^7 CFU/ml"}
    ]},
    {"compound": "polyhexamethylene biguanide [0.3% PHMB]", "values": [
      {"measurement": "Staphylococcus aureus (CFU/tube)", "setting": "S. aureus", "result": "1.0 × 10^7 CFU/tube"},
      {"measurement": "fold reduction relative to control", "setting": "S. aureus; [2]", "result": 33, "unit": "fold"},
      {"measurement": "Growth (CFU/ml)", "setting": "S. aureus; [2]", "result": "3.0 × 10^6 CFU/ml"}
    ]},
    {"compound": "povidone iodine [1.0% PVI]", "values": [
      {"measurement": "fold reduction relative to control", "setting": "S. aureus; [2]", "result": 5, "unit": "fold"},
      {"measurement": "Growth (CFU/ml)", "setting": "S. aureus; [2]", "result": "2.0 × 10^7 CFU/ml"}
    ]}
  ]
}
